According to the NIST ThermoML archive (doi:10.1016/j.jct.2019.01.012):
± gives the expanded uncertainty stated by the source.

Test: molar enthalpy of vaporization or sublimation
Conditions: 298.15 K; Liquid; Static calorimetry

| SMILES | molar enthalpy [kcal/mol] |
| --- | --- |
| O=C1C=CCC1 [2-cyclopenten-1-one] | 12.5 ± 0.359 |
| CC1=CC(=O)CC1 [3-methyl-2-cyclopenten-1-one] | 12.5 ± 0.335 |
